The text below walks through data of ChEMBL document CHEMBL1122060, “Synthesis and some pharmacological properties of Z-Tyr(SO3H)-Met-Gly-Trp-Met-Asp(Phe-NH2)-OH, a 32-beta-aspartyl analogue of cholecystokinin (pancreozymin) 27-33” (1982).

Common to all, as to assay type: functional
Experiment [1] is filed under the species Felis catus. In words: Pancreatic response measured as optical density of the pancreatic juice secreted 30 minutes following injection of 0.5 ug and diluted to 25 mL with physiological saline.
The species entered for experiment [2] is Felis catus. As to the kind of experiment: Pancreatic response measured as optical density of the pancreatic juice secreted 30 minutes following injection of 1 ug and diluted to 25 mL with physiological saline.
For experiment [3], the species on record is Felis catus. In words: Pancreatic response measured as optical density of the pancreatic juice secreted 30 minutes following injection of 2 ug and diluted to 25 mL with physiological saline.

*1 amine or outer side, *2 acyl side, *3 side chain or, on linkers, in order; H or OH if unused. Where a SMILES comes first, the peptide text is derived from it. [ ]: non-standard residue; d: D form. βAsp = O=C(O)[C@H](CC(=O)[*:2])N[*:1]

In the case of `CSCC[C@H](NC(=O)[C@H](Cc1c[nH]c2ccccc12)NC(=O)CNC(=O)[C@H](CCSC)NC(=O)[C@@H](N)Cc1ccc(O)cc1)C(=O)N[C@@H](CC(=O)N[C@@H](Cc1ccccc1)C(N)=O)C(=O)O` (H-YMGWM[βAsp]F-NH2), the values for the Pancreatic response in the experiment listed under Felis catus [1], in the experiment filed under Felis catus [2] and in the experiment listed under Felis catus [3] were 0.46, 0.97 and 1.47, respectively.
